Experimental data as given in patent publication US20060116390A1, “Hepatitis c virus inhibitors” (priority 2003, published 2006).
pIC50: −log10 of the molar value. Read-outs that look alike come from different tables or passages of the source.

Test system: HCV proteins in Rep5.1 cells (replicon cell line)
Assay: Inhibitory activity of HCV: cell-based ELISA in replicon cell line Rep5.1 (decrease of HCV proteins)
Design: species or system hepatitis C virus
Conditions: Rep5.1 cells, 72 hours with drug
How it was run: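 Rep5.1 replicon cells (5000/well, DMEM-10 with 500 μg/ml G418) were given serially diluted drug 4 h after seeding. After 72 h, cells were fixed in methanol/acetone and HCV proteins detected by cell-based ELISA using replicon-specific patient plasma antibodies. IC50 is the concentration giving 50% protein decrease versus the no-drug control.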

[1] = Hepatitis C virus, 72 h, concentration at which 50% of HCV proteins was decreased, Table 2, read-out: IC50
[2] = Hepatitis C virus, 72 h, decrease of HCV proteins measured by HCV antibody, Table 1, read-out: Level (IC50 values classified)
[3] = concentration at which 50% of HCV proteins was decreased, Table 2, read-out: IC50

| Compound | pIC50 [1] | pIC50 [2] | pIC50 [3] |
| --- | --- | --- | --- |
| CC1=C(C(=O)OC2CCCC2)CNC(=S)N1 [Compound 67, 6-methyl-2-thioxo-1,2,3,4-tetrahydro-pyrimidine-5-carboxylic acid cyclopentyl ester] | 5.22 | 5.00 to 6.00 |  |
| CC1=C(C(=O)OCCCCSc2nc3ccccc3s2)C(CO)NC(=S)N1 (stereo not drawn) [70″, 4-hydroxymethyl-6-methyl-2-thioxo-1,2,3,4-tetrahydro-pyrimidine-5-carboxylic acid 4-(benzothiazol-2-ylsulfanyl)-butyl ester] | 6.40 | > 6.00 |  |
| CC1=C(C(=O)OCCc2scnc2C)CNC(=S)N1 [Compound 24, 6-methyl-2-thioxo-1,2,3,4-tetrahydro-pyrimidine-5-carboxylic acid 2-(4-methyl-thiazol-5-yl)-ethyl ester] | 4.15 | < 4.70 |  |
| CCN(c1ccc(CCOC(=O)C2=C(C)NC(=S)NC2CO)cc1[N+](=O)[O-])C1CC1 (stereo not drawn) [94″, 4-Hydroxymethyl-6-methyl-2-thioxo-1,2,3,4-tetrahydro-pyrimidine-5-carboxylic acid 2-[4-(cyclopropyl-ethyl-amino)-3-nitro-phenyl]-ethyl ester] | 6.10 | > 6.00 |  |
| CC1=C(C(=O)OCCc2cn(C)c3ccccc23)CNC(=S)N1 [Compound 165, 6-methyl-2-thioxo-1,2,3,4-tetrahydro-pyrimidine-5-carboxylic acid 2-(1-methyl-1H-indol-3-yl)-ethyl ester] | 5.85 | 5.00 to 6.00 |  |
| CC1=C(C(=O)OCc2ccc3c(c2)OCO3)CNC(=S)N1 [Compound 9, 6-methyl-2-thioxo-1,2,3,4-tetrahydro-pyrimidine-5-carboxylic acid benzo[1,3]dioxol-5-ylmethyl ester] | 5.40 | 5.00 to 6.00 |  |
| CC1=C(C(=O)OCc2scc(C)c2Cl)CNC(=S)N1 [Compound 207, 6-methyl-2-thioxo-1,2,3,4-tetrahydro-pyrimidine-5-carboxylic acid 3-chloro-4-methyl-thiophen-2-ylmethyl ester] | 6.52 | > 6.00 |  |
| CC1=C(C(=O)OCCOCc2ccccc2)CNC(=S)N1 [Compound 15, 6-methyl-2-thioxo-1,2,3,4-tetrahydro-pyrimidine-5-carboxylic acid 2-benzyloxy-ethyl ester] | 5.52 | 5.00 to 6.00 |  |
| CC1=C(C(=O)OCCc2ccccc2)CNC(=S)N1 [Compound 34, 6-methyl-2-thioxo-1,2,3,4-tetrahydro-pyrimidine-5-carboxylic acid phenethyl ester] | 5.70 | 5.00 to 6.00 |  |
| COc1ccc(CCCOC(=O)C2=C(C)NC(=S)NC2CF)cc1 (stereo not drawn) [43′, 4-fluoromethyl-6-methyl-2-thioxo-1,2,3,4-tetrahydro-pyrimidine-5-carboxylic acid 3-(4-methoxy-phenyl)-propyl ester] | 5.74 | 5.00 to 6.00 |  |
| CC1=C(C(=O)OCCc2c(F)cccc2F)C(CO)NC(=S)N1 (stereo not drawn) [39″, 4-hydroxymethyl-6-methyl-2-thioxo-1,2,3,4-tetrahydro-pyrimidine-5-carboxylic acid 2-(2,6-difluoro-phenyl)-ethyl ester] | 4.70 | 4.70 to 5.00 |  |
| CC1=C(C(=O)OCCc2ccsc2Br)C(CF)NC(=S)N1 (stereo not drawn) [Compound 268, 4-fluoromethyl-6-methyl-2-thioxo-1,2,3,4-tetrahydro-pyrimidine-5-carboxylic acid 2-(2-bromo-thiophen-3-yl)-ethyl ester] | 6.00 | 5.00 to 6.00 |  |
| CC1=C(C(=O)OCc2sccc2-n2cccc2)CNC(=S)N1 [Compound 220, 6-methyl-2-thioxo-1,2,3,4-tetrahydro-pyrimidine-5-carboxylic acid 3-pyrrol-1-yl-thiophen-2-ylmethyl ester] | 6.10 | > 6.00 |  |
| CCc1ccc(CCOC(=O)C2=C(C)NC(=S)NC2CO)cc1F (stereo not drawn) [72″, 4-hydroxymethyl-6-methyl-2-thioxo-1,2,3,4-tetrahydro-pyrimidine-5-carboxylic acid 2-(4-ethyl-3-fluoro-phenyl)-ethyl ester] | 6.40 | > 6.00 |  |
| CC1=C(C(=O)OCc2ccc(F)cc2F)CNC(=S)N1 [Compound 69, 6-methyl-2-thioxo-1,2,3,4-tetrahydro-pyrimidine-5-carboxylic acid 2,4-difluoro-benzyl ester] | 5.92 | 5.00 to 6.00 |  |
| CC1=C(C(=O)OCC=Cc2ccco2)CNC(=S)N1 [Compound 251, 6-methyl-2-thioxo-1,2,3,4-tetrahydro-pyrimidine-5-carboxylic acid 3-furan-2-allyl ester] |  |  | 5.80 |
| CC(C)=CCCC(C)=CCOC(=O)C1=C(C)NC(=S)NC1 [Compound 56, 6-methyl-2-thioxo-1,2,3,4-tetrahydro-pyrimidine-5-carboxylic acid 3,7-dimethyl-octa-2,6-dienyl ester] | > 6.30 | > 6.00 |  |
| CC1=C(C(=O)OCC#Cc2ccccc2)C(CO)NC(=S)N1 (stereo not drawn) [40″, 4-hydroxymethyl-6-methyl-2-thioxo-1,2,3,4-tetrahydro-pyrimidine-5-carboxylic acid 3-phenyl-prop-2-inyl ester] |  |  | < 4.00 |
| CC1=C(C(=O)OCCc2cc(F)cc(F)c2)C(CO)NC(=S)N1 (stereo not drawn) [57″, 4-hydroxymethyl-6-methyl-2-thioxo-1,2,3,4-tetrahydro-pyrimidine-5-carboxylic acid 2-(3,5-difluoro-phenyl)-ethyl ester] | 5.19 | 5.00 to 6.00 |  |
| CC1=C(C(=O)OCCCc2ccsc2)C(CF)NC(=S)N1 (stereo not drawn) [53′, 4-fluoromethyl-6-methyl-2-thioxo-1,2,3,4-tetrahydro-pyrimidine-5-carboxylic acid 3-thiophen-3-yl-propyl ester] | 4.74 | 4.70 to 5.00 |  |
| CC1=C(C(=O)OCCc2ccc(N3CC=CC3)c([N+](=O)[O-])c2)C(CO)NC(=S)N1 (stereo not drawn) [101″, 4-Hydroxymethyl-6-methyl-2-thioxo-1,2,3,4-tetrahydro-pyrimidine-5-carboxylic acid 2-[4-(2,5-dihydro-pyrrol-1-yl)-3-nitro-phenyl]-ethyl ester] | 5.92 | 5.00 to 6.00 |  |
| CC1=C(C(=O)OCc2scc(C)c2Cl)C(CF)NC(=S)N1 (stereo not drawn) [15′, 4-fluoromethyl-6-methyl-2-thioxo-1,2,3,4-tetrahydro-pyrimidine-5-carboxylic acid 3-chloro-4-methyl-thiophen-2-ylmethyl ester] | 6.00 | > 6.00 |  |
| CC1=C(C(=O)OCCc2ccc(C)c(Cl)c2)C(CO)NC(=S)N1 (stereo not drawn) [74″, 4-hydroxymethyl-6-methyl-2-thioxo-1,2,3,4-tetrahydro-pyrimidine-5-carboxylic acid 2-(3-chloro-4-methyl-phenyl)-ethyl ester] | > 6.40 | > 6.00 |  |
| CC1=C(C(=O)OCc2ccc(-c3ccccc3)cc2)C(CO)NC(=S)N1 (stereo not drawn) [28″, 4-hydroxymethyl-6-methyl-2-thioxo-1,2,3,4-tetrahydro-pyrimidine-5-carboxylic acid biphenyl-4-ylmethyl ester] | 6.00 | > 6.00 |  |
| CC(=O)SCCOC(=O)OCC1NC(=S)NC(C)=C1C(=O)OCCc1cccc([N+](=O)[O-])c1 (stereo not drawn) [79″, 4-(2-acetylsulfanyl-ethoxycarbonyloxymethyl)-6-methyl-2-thioxo-1,2,3,4-tetrahydro-pyrimidine-5-carboxylic acid 2-(3-nitro-phenyl)-ethyl ester] | 5.21 | 5.00 to 6.00 |  |
